SMILES strings stand for the structures. Converted amounts (≈) assume the structure as drawn.

These results are taken from US4894459A, “Process for the preparation of morphologically homogeneous forms of thiazole derivatives” (Richter Gedeon Vehyeszeti Gyar Rt., priority 1986, dated 1990).

The conditions of data set [1]: form "A" vs form "B".
For data set [2] the following is noted: for Electrostatic charging: amount of stuck material after knocking / Electrostatic charging: amount of stuck material without knocking: 37 g in glass dish of 120 mm, 1 minute rubbing; for Electrostatic charging: amount of stuck material after knocking: dish knocked 10 times. As for the experimental part: (J) Electrostatic Charging
As there is no simple procedure to be carried out in an organic chemistry laboratory, the data presented below were measured as follows: Into a glass dish of 120 mm diameter 37 g of one of the forms were transferred and then the sample was stirred for 1 minute with rubbing with a flattened end glass-rod. Following this, the content of the dish was poured out without shaking, and the amount of stuck material was measured on a balance. Then the measurement was repeated so that the dish was knocked 10 times.

The conditions of data set [3]: 10 mg in 100 ml distilled water.
Experimental: The investigation was made as follows: 10-10 mg of the form to be tested were weighed into 100 ml of distilled water, under stirring. At appropriate times samples were taken from the system, and after filtration and appropriate dilution the amount of dissolved famotidine was determined by ultraviolet spectrophotometry.
The conditions of data set [4]: for Rolling angle (basic angle of the cone): funnel with tube of 5 mm diameter, opening 10 cm above the level of the material. On the procedure: The data given here were measured according to the following scheme:
The form to be tested was filled into a funnel provided with a tube of 5 mm diameter, then the funnel was set into a position so that its opening was 10 cm above the level of the material.

The nature of the next data set: physchem. The settings on record: for solubility at 5 h: distilled water, water, Saturation solubility, 5 hours stirring, UV at 277 nm. As for the experimental part: The investigation was made as follows: the different forms were stirred in distilled water for 5 hours, and the concentration of the material in solution was determined by ultraviolet spectroscopy at 277 nm wavelength.

For data set [5] the following is noted: for Deformity ratio: ratio of longitudinal axis and greatest diameter, average of 250 grains. On the procedure:
(G) The Deformity Ratio of the Crystals
Deformity ratio means the ratio of the longitudinal axis and greatest diameter of the crystal.
The data were determined from the measurement of 250-250 grains by averaging.

The conditions of data set [6]: for Compaction ratio: with / without compaction; for Bulk density with compaction: hand-vibrator for 5 minutes.
For data set [7] the following is noted: 95:5 mixtures, water, 24 hours at 60° C. As for the experimental part:
(I) Thermodynamic Stability
The test was made as follows: a mixture of the different forms in a ratio of 95:5 for both derivatives contaminated with the other polymorph was prepared, then the system was stirred with a magnetic stirrer for 24 hours at 60° C. so that water only covered the crystals. The crystals were then filtered and morphologically studied.

The next data set concerns histamine-H2 receptor. The settings on record: well known; cited from earlier work.
For data set [8] the following is noted: medium with a pH lower than 3.

Usually solubility stands for how much of the substance goes into solution per volume. Lower therefore signals little dissolved substance. In the case of `NC(N)=Nc1nc(CSCCC(N)=NS(N)(=O)=O)cs1` [Form "A", N-sulfamoyl-3-(2-guanidino-thiazole-4-yl-methylthio)-propionamidine], the “Handling and stability, comparison in words” value in data set [1] was “unambiguously more advantageous”. Also, in [2], the “Electrostatic charging: amount of stuck material after knocking” value is given as 0.5 g and the “Electrostatic charging: amount of stuck material without knocking” value turned out to be 2.8 g. Besides, in data set [3], the “Dynamic solubility at 2 min” value came out at 19 µg/mL, the “Dynamic solubility at 5 min” value amounted to 25 µg/mL, the “Dynamic solubility at 10 min” value is 42 µg/mL and the “Dynamic solubility at 1 hour” value is 72 µg/mL. Further, in data set [4], the “Rolling angle (basic angle of the cone)” value is 41-42 °. In the data set “physchem”, this molecule showed a solubility at 5 h of 860 µg/mL (≈ 2550 µM). The Deformity ratio in data set [5] was determined as 1.40. Further, in data set [6], the Compaction ratio is recorded as 1.38, the “Bulk density with compaction” value came out at 960 g/L and the “Bulk density without compaction” value amounted to 695 g/L. In addition, the Thermodynamic stability result in data set [7] was “stabile”.
With `N=C(N)Nc1nc(CSCCC(=N)NS(N)(=O)=O)cs1` [Famotidine, N-sulfamoyl-3-(2-guanidino-thiazole-4-yl-methylthio)-propionamidine], the “histamine-H2 receptor blocking effect” value in the data set with histamine-H2 receptor is given as “excellent”. In addition, the “Hydrolysis of the amidino group” value in data set [8] is “highly capable of hydrolysis”.
For `NC(N)=Nc1nc(CSCCC(N)=NS(N)(=O)=O)cs1` [Form "B", N-sulfamoyl-3-(2-guanidino-thiazole-4-yl-methylthio)-propionamidine], in [2], the “Electrostatic charging: amount of stuck material after knocking” value is on record as 10.0 g and the “Electrostatic charging: amount of stuck material without knocking” value came to 13 g. Also, the “Electrostatic charging: amount attracted, times more than form "A"” value in data set [2] (form "B" vs form "A") was determined as 20 times. In addition, in data set [3], the “Dynamic solubility at 2 min” value turned out to be 25 µg/mL, the “Dynamic solubility at 5 min” value came out at 40 µg/mL, the “Dynamic solubility at 10 min” value was 51 µg/mL and the “Dynamic solubility at 1 hour” value was 76 µg/mL. Besides, in [4], the “Rolling angle (basic angle of the cone)” value is “more than 55 °”. The “Slope of piled up sample at the beginning” value in data set [4] (rolling angle test, footnote x, correct rolling angle not measurable) was 80-85 °. In “physchem” (unit given as mg), the solubility at 5 h came out at 980 µg/mL (≈ 2900 µM). Moreover, the “Saturation solubility, comparison in words” value in the data set “physchem” (form "B" vs form "A") is given as “significantly higher”. For the same molecule, in [5] (form "B" vs form "A"), the “Deformity ratio, times higher than form "A"” value turned out to be 3.3 times. For the same molecule, the Deformity ratio in [5] was determined as 4.70. Further, in data set [6], the Compaction ratio was 1.47, the “Bulk density with compaction” value worked out at 505 g/L and the “Bulk density without compaction” value came out at 340 g/L. Further, the Thermodynamic stability entry in data set [7] is reported as “metastabile”.
